The values below are quoted from earlier work in patent US20060188878A1, “Methods to predict ederma as a side effect of drug treatment” (priority 2002, published 2006).

SMILES strings stand for the structures.

The data set deals with CML.
[1] abbreviates: of 54 CML patients treated with 300 mg or more.

Take `Cc1ccc(NC(=O)c2ccc(CN3CCN(C)CC3)cc2)cc1Nc1nccc(-c2cccnc2)n1` [Imatinib]: under setting [1], the “Patients with complete cytogenetic remission” value is on record as 7, the “Patients with complete hematologic responses” value is on record as 53, the “Patients with cytogenic responses” value is 29 and the “Patients with major cytogenetic responses (0-35% of cells in metaphase positive for the Ph′ chromosome)” value is 17. Also, where the note is “of the 54 patients who received the dose (300 mg or more)”, the “Patients with major cytogenetic responses, percent” value is reported as 31%.
